# Test results published in US20030202967A1, “Development and use of human pancreatic cell lines” (priority 1995, published 2003).
# Assays:
# TRM-1 cells = experiment: Insulin production from TRM-1 cells (radioimmunoassay); type: cell-based, human
# Procedure: Levels of insulin and glucagon released into medium and the corresponding hormone content of acid ethanol extracts of sonicated cells were measured by radioimmunoassay (RIA) as described in Otonkoski, T., et al., J. Clin. Invest., 92:1459-1466 (1993).
# Cells grown in this way were treated with nicotinamide for varying periods of time and assayed for insulin production using an extremely sensitive radioimmunoassay {Beattie, G., et al., J. Clin. Endocr. Metab., 78:1232-40 (1994)}.
# [1] = test system: epithelial cells in the human fetal pancreas (HFP); experiment: Mitogenic effect on human fetal pancreas epithelial cells; type: cell-based
# Procedure: Sci., 05:753-64 (1993)}. Thus, in this example, the epithelial cells were initially grown in the extracellular matrix from 804G cells and HGF/SF in DMEM, supplemented with 10% fetal bovine serum, at 37° C. and 10% CO2. In this growth condition, the epithelial cells formed an islet-like cell cluster (ICC)-derived monolayer cultures having a doubling time of 48 hours. With such high percentage of mitotically active cells, the use of retroviral vectors which require mitotically active cells for successful integration of viral DNA become attractive. After retroviral infection, the epithelial cells were grown in DMEM, supplemented with 10% fetal bovine serum, at 37° C. and 10% CO2, without the extracellular matrix from 804G cells and HGF/SF. The use of HGF/SF offers an added advantage of selecting for epithelial over stromal cells. Stromal cells produce the growth factor HGF. […] Thus, HGF/SF treatment results in selective growth of the epithelial cells but also increases the mitotic index of the epithelial cells. The following method used the HGF/SF method.
# [2] = test system: CAT activity in LNSVoCL-infected 208F clones; type: cell-based, rat; conditions: some LNSVoCL-infected 208F clones also infected with pLISVHygL
# Procedure: The ability of LNSVoCL and LoCRNLo to mediate inducible CAT expression was tested in rat 208F cells. The cells were infected by one of the two CAT-expressing vectors followed by the lac repressor-expressing vector pLISVHygL. Infected cells were selected in media containing G418 and hygromycin. CAT activity in LNSVoCL-infected 208F clones was determined in the presence or absence of IPTG.
compound,measurement,setting,value
Cn1c(=O)c2[nH]cnc2n(C)c1=O [theophylline],Stimulation of insulin production by treatment,TRM-1 cells; TRM-1 cells,not stimulated
"HGF/SF: growth factor/scatter factor, ligand of the met receptor",Mitogenic effect,[1],strongly mitogenic
"CC(C)SC1O[C@H](CO)[C@H](O)[C@H](O)[C@H]1O (stereo partly shown) [IPTG, isopropyl thiogalactopyranoside]",Increase in CAT activity in the presence of IPTG over its absence,[2],80-100 fold
"NC(=O)c1cccnc1 [Nic., nicotinamide]",Insulin production Day 0,"TRM-1 cells; TRM-1 suspension culture +10 mM Nic., Day 0",0 μU insulin/48 hr/ml medium
same,Insulin production Day 5,"TRM-1 cells; TRM-1 suspension culture +10 mM Nic., Day 5",0 μU insulin/48 hr/ml medium
same,Insulin production Day 7,"TRM-1 cells; TRM-1 suspension culture +10 mM Nic., Day 7",0 μU insulin/48 hr/ml medium
same,Insulin production Day 11,"TRM-1 cells; TRM-1 suspension culture +10 mM Nic., Day 11",2.8 μU insulin/48 hr/ml medium
same,Insulin production Day 13,"TRM-1 cells; TRM-1 suspension culture +10 mM Nic., Day 13",4.0 μU insulin/48 hr/ml medium
same,Insulin production Day 17,"TRM-1 cells; TRM-1 suspension culture +10 mM Nic., Day 17",5.6 μU insulin/48 hr/ml medium
same,Insulin expression in suspension cultures,"TRM-1 cells; TRM-1 suspension cultures, after 11 days of exposure",small amounts of insulin
